{"source": "paper PMC11203266", "about": "“Continuous evolution of compact protein degradation tags regulated by selective molecular glues” (Science (New York, N.Y.), 2024)", "key": {"degron-tagged eGFP": {"tested_on": "degron-tagged eGFP", "assay": "Degron-tagged eGFP degradation by flow cytometry in HEK293T cells", "type": "cell-based, human"}, "DDB1•CRBN": {"target": "T1, DDB1•CRBN (Homo sapiens, UniProt Q96SW2)", "T1 construct": "made in house", "assay": "Competitive fluorescence anisotropy (polarization) vs thalidomide-Cy5", "type": "binding", "description": "Competitive fluorescence polarization experiments were performed according to previously reported methods ([65]). All experiments were performed in 25 mM HEPES, […], 1 mM TCEP, pH 7.4. A pre-complexed sample was prepared by incubating DDB1-CRBN (400 nM) with thalidomide–Cy5 conjugate (fig. S2A) (80 nM) at RT for 30 minutes with gentle shaking (220 rpm). […] Polarization values were measured on an Infinite M1000 Pro microplate reader (Tecan) following 1 hour of incubation at RT with gentle shaking. A total of three independent measurements were acquired and averaged per biological sample to generate the values shown in figure S2C. All mP values were normalized between 0 and 100 using the formula NormalizedmP=[(x−minimum)/[…]]∗100 , where ‘‘x’’ is the mP value of the sample and ‘‘minimum’’ and ‘‘maximum’’ are the minimum and maximum mP values, respectively, across all samples. KD values were estimated from computed Ki-values as previously described ([65])."}, "[1]": {"target": "full-length CRBN (MG-PACE circuit, SD35) (Homo sapiens, UniProt Q96SW2)", "assay": "Two-hybrid luciferase transcriptional activation in PMBN-permeabilized E. coli by compound-induced ternary complex of RR69–human full-length CRBN with ω–degron, about 1 h at 37 °C, four-parameter fit.", "type": "cell-based, E. coli S2060", "conditions": "n = 3"}, "[2]": {"target": "full-length CRBN (MG-PACE circuit, SD31) (Homo sapiens, UniProt Q96SW2)", "assay": "Two-hybrid luciferase transcriptional activation in PMBN-permeabilized E. coli by compound-induced ternary complex of RR69–human full-length CRBN with ω–degron, about 1 h at 37 °C, four-parameter fit.", "type": "cell-based, E. coli S2060", "conditions": "n = 3", "description": "(§1) To evolve ZFs that engage PT-179-bound CRBN, we constructed an MG-PACE circuit using the CRBN•IMiD•ZF molecular glue complex. […] We translationally fused CRBN to the DNA-binding protein RR69 and fused SD0 to the RNAP ω-subunit, then measured transcriptional activation by luminescence (Fig. 2A).\n(§2) Figure 2. […] (A) Full-length CRBN MG-PACE circuit. (B) CRBNCTD MG-PACE circuit. […] Values and error bars in (C), (E), and (H) represent the mean and standard deviation of three replicates, each normalized to a control treatment with DMSO only. Dashed vertical lines in (D), (F), and (G) represent neutral drift passages.\n(§3) Chemically competent S2060 cells were co-transformed with accessory and complementary plasmids (Table S1)."}, "[3]": {"target": "full-length CRBN (MG-PACE circuit, SD36) (Homo sapiens, UniProt Q96SW2)", "assay": "Two-hybrid luciferase transcriptional activation in PMBN-permeabilized E. coli by compound-induced ternary complex of RR69–human full-length CRBN with ω–degron, about 1 h at 37 °C, four-parameter fit.", "type": "cell-based, E. coli S2060", "conditions": "n = 3", "description": "as §1, §2, §3"}, "[4]": {"target": "T2, mmCRBN (MG-PACE circuit, SD56) (Mus musculus, UniProt Q8C7D2)", "T2 construct": "gene Crbn; mouse cereblon in mmCRBN MG-PACE circuit, partner SD56 (evolved ZF degron), in E. coli", "assay": "Two-hybrid luciferase transcriptional activation in PMBN-permeabilized E. coli by compound-induced ternary complex of mouse CRBN with evolved degron, about 1 h at 37 °C, four-parameter fit.", "type": "cell-based, E. coli S2060", "conditions": "n = 3", "description": "(§4) Compared to human CRBN, mouse cereblon (mmCRBN) contains a V388I mutation that prevents IMiD-induced recruitment of ZF neosubstrates ([8]). The development of a potent and compact degron that is compatible with mmCRBN would facilitate studies that modulate target protein function in mouse systems. We hypothesized that MG-PACE could evolve degrons that overcome this difference in mmCRBN and respond to PT-179 in mouse cells. We constructed a mmCRBN MG-PACE circuit (Fig. 5A) and performed a total of 205 hours of PACE seeded with SD36-encoding phage (Fig. 5B).\n(§5) Figure 5. MG-PACE evolves degrons that engage PT-179-bound mouse CRBN. (A) The mmCRBN MG-PACE circuit. Stringency is increased by expression of a competing ZF degron fused to maltose binding protein (MBP). (B) PACE in the mmCRBN MG-PACE circuit. (C) Mutations in evolved PT-179•mmCRBN-binding degrons. (D) PT-179-induced mmCRBN circuit activation (1 hr) by SD0 and evolved variants. […]\n(§6) Chemically competent S2060 cells were co-transformed with accessory and complementary plasmids (Table S1). […] 96-well plates were then incubated in an Infinite M1000 Pro microplate reader (Tecan) at 37 °C with continuous shaking for ~1 hour prior to reading A600 nm and luminescence values. Raw luminescence values were then divided by the corresponding A600 nm values to normalize to cell density."}, "[5]": {"target": "T3, mmCRBN (MG-PACE circuit, SD55) (Mus musculus, UniProt Q8C7D2)", "T3 construct": "gene Crbn; mouse cereblon in mmCRBN MG-PACE circuit, partner SD55 (evolved ZF degron), in E. coli", "assay": "Two-hybrid luciferase transcriptional activation in PMBN-permeabilized E. coli by compound-induced ternary complex of mouse CRBN with evolved degron, about 1 h at 37 °C, four-parameter fit.", "type": "cell-based, E. coli S2060", "conditions": "n = 3", "description": "as §4, §5, §6"}, "FRB": {"target": "FRB", "conditions": "read-out: KD for FRB without FKBP12; cited from earlier work"}, "FKBP12 and FRB": {"target": "FKBP12 and FRB (Homo sapiens, UniProt P42345+P62942)", "assay": "Rapamycin-sensitive MG-PACE circuit, luciferase activation", "type": "cell-based, E. coli", "conditions": "without PMBN", "description": "as §3"}}, "note": "“Also recorded” adds a separate entry of the source."}
{"smiles": "O=C1CCC(N2C(=O)c3cc(F)c(N4CCOCC4)cc3C2=O)C(=O)N1", "note": "(centres unmarked) [PK-1016]", "values": [{"measurement": "PK-1016-induced degradation of SD40-eGFP (in words)", "setting": "degron-tagged eGFP; HEK293T cells", "result": "poor activity; also recorded: poor degrader"}, {"measurement": "lower affinity for CRBN than PT-179", "setting": "DDB1•CRBN", "result": 2, "unit": "fold"}, {"measurement": "Kd", "setting": "DDB1•CRBN; competition with thalidomide–Cy5, KD estimated from Ki", "result": 1010, "unit": "nM"}]}
{"smiles": "O=C1CCC(N2C(=O)c3ccc(N4CCOCC4)cc3C2=O)C(=O)N1", "note": "(centres unmarked) [PT-179, PT-179 (thalidomide derivative with a morpholine at the phthalimide 5-position, without the 4-amino group)]", "values": [{"measurement": "EC50", "setting": "[1]", "result": 557, "unit": "nM"}, {"measurement": "EC50", "setting": "[2]", "result": 3250, "unit": "nM"}, {"measurement": "EC50", "setting": "[3]", "result": 217, "unit": "nM"}, {"measurement": "EC50", "setting": "[4]", "result": 225, "unit": "nM"}, {"measurement": "EC50", "setting": "[5]", "result": 1110, "unit": "nM"}]}
{"smiles": "N#Cc1ccc(N2CCN(Cc3ccc(COc4cccc5c4CN([C@H]4CCC(=O)NC4=O)C5=O)cc3)CC2)c(F)c1", "note": "[mezigdomide, reference compound]", "values": [{"measurement": "degradation activity on SD40-tagged eGFP (in words)", "setting": "degron-tagged eGFP; fig. S11E", "result": "highly potent degradation activity"}]}
{"smiles": "CO[C@H]1C[C@@H]2CC[C@@H](C)[C@@](O)(O2)C(=O)C(=O)N2CCCC[C@H]2C(=O)O[C@H]([C@H](C)C[C@@H]2CC[C@@H](O)[C@H](OC)C2)CC(=O)[C@H](C)/C=C(\\C)[C@@H](O)[C@@H](OC)C(=O)[C@H](C)C[C@H](C)/C=C/C=C/C=C/1C", "note": "[rapamycin]", "values": [{"measurement": "Kd", "setting": "FRB", "result": 26000, "unit": "nM"}, {"measurement": "rapamycin concentrations at which luciferase expression was detected", "setting": "FKBP12 and FRB", "result": "> 1", "unit": "µM"}]}
